We go through 23 compounds from patent US20120245137A1 (Zalicus Pharmaceuticals Ltd., priority 2009, published 2012).

Format in all cases: cell-based
The target in assay [1] is N-type calcium channel subunits (α1B, α2δ, and β3a) (Homo sapiens, UniProt Q00975). Nature of the assay: Block of Cav2.2 channel, whole cell voltage clamp, manual and PatchXpress. As to conditions: Table 5; table follows Assay Example 3 (whole cell voltage clamp / PatchXpress); assay not given. The procedure, abridged:
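Percent block taken as current amplitude ratio with versus without compound, applied in rising doses; IC50 fitted where one cell received multiple doses. Protocol: 50 ms pulses to +20 mV at 0.067 Hz from […] or −90 mV holding; P/n leak subtraction, no junction-potential correction; manual and PatchXpress recordings.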

Assay [2] has as its target human α1H T-type channels (Homo sapiens, UniProt O95180). The assay can be described thus: T-type calcium channel block, whole cell patch clamp, α1H. As to conditions: HEK cells stably expressing human α1H; mainly non-inactivated protocol; values above 10,000 nM represented as 10000. The procedure, abridged: (§1)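 Whole-cell voltage clamp on stably transfected HEK 293 lines carrying human α1H or α1G. Two voltage protocols used: non-inactivated pre-pulse for resting block, inactivated for voltage-dependent block; test agents perfused locally in external solution (0.1-0.01% DMSO) following ~10 min rest.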

The target of assay [3] is human α1G T-type channels (Homo sapiens, UniProt O43497). Nature of the assay: T-type calcium channel block, whole cell patch clamp, α1G. As to conditions: HEK cells stably expressing human α1G; mainly non-inactivated protocol; values above 10,000 nM represented as 10000. Summed up: as §1
human α1G T-type channels, sequence (O43497 whole entry): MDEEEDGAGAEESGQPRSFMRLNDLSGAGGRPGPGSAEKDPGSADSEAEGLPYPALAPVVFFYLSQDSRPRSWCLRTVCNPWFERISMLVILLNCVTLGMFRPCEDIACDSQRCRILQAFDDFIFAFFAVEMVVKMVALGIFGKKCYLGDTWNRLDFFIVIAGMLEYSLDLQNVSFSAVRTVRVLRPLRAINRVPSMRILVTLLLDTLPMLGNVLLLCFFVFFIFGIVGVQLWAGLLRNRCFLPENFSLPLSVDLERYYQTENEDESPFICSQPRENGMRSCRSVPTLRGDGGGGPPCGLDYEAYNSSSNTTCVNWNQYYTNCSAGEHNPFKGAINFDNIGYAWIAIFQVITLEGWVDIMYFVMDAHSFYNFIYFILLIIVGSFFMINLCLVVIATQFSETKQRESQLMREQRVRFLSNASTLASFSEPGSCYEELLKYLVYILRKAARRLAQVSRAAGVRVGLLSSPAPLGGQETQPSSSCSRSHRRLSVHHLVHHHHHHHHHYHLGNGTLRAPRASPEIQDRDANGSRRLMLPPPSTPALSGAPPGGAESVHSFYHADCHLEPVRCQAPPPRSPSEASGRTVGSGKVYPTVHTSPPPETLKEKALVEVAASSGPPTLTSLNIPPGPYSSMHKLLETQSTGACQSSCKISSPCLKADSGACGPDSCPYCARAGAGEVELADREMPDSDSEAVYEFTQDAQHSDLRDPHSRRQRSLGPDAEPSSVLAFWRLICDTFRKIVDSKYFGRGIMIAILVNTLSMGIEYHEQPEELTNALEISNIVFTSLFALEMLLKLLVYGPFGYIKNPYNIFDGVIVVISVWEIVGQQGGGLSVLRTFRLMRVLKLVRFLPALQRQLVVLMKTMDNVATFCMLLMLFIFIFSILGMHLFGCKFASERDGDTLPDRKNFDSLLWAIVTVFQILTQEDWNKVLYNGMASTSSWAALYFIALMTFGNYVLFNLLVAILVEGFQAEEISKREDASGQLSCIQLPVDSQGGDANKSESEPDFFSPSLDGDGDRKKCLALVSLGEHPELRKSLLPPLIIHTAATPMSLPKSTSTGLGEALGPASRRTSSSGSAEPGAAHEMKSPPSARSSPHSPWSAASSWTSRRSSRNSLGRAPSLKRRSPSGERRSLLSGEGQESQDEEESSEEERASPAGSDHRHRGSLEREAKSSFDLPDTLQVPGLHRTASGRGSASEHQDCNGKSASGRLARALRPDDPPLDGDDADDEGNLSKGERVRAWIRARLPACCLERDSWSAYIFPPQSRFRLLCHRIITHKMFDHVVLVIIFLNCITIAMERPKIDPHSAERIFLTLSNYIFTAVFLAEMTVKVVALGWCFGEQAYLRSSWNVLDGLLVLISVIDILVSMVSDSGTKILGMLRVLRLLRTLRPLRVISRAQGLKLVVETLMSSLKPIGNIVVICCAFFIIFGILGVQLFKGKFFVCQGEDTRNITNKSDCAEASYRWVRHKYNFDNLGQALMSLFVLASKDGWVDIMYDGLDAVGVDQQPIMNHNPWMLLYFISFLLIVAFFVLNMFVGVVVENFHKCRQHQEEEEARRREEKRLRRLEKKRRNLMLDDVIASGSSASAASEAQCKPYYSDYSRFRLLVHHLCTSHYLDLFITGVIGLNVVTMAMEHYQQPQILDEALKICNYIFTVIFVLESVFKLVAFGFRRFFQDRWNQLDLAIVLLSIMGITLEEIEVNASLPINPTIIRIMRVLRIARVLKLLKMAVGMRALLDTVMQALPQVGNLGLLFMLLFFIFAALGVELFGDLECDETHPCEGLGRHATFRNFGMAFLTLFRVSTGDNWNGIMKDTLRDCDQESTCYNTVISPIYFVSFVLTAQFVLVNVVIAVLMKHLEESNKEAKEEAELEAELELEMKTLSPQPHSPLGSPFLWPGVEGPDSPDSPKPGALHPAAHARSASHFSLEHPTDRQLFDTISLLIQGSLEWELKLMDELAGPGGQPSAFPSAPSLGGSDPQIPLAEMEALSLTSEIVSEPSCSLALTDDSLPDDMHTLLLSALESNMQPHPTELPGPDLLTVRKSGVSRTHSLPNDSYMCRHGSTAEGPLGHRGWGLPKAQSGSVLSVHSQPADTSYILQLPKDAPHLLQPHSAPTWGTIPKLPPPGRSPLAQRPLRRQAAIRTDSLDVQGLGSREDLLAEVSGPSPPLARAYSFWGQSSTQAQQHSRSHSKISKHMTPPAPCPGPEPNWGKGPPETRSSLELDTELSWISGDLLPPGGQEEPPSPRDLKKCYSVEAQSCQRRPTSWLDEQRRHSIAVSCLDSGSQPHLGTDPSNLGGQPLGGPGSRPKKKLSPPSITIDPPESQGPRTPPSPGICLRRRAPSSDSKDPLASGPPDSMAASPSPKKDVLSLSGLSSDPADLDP

pIC50: −log10 of the molar value.

human α1H T-type channels, sequence (O95180 whole entry, the tested form may be a part): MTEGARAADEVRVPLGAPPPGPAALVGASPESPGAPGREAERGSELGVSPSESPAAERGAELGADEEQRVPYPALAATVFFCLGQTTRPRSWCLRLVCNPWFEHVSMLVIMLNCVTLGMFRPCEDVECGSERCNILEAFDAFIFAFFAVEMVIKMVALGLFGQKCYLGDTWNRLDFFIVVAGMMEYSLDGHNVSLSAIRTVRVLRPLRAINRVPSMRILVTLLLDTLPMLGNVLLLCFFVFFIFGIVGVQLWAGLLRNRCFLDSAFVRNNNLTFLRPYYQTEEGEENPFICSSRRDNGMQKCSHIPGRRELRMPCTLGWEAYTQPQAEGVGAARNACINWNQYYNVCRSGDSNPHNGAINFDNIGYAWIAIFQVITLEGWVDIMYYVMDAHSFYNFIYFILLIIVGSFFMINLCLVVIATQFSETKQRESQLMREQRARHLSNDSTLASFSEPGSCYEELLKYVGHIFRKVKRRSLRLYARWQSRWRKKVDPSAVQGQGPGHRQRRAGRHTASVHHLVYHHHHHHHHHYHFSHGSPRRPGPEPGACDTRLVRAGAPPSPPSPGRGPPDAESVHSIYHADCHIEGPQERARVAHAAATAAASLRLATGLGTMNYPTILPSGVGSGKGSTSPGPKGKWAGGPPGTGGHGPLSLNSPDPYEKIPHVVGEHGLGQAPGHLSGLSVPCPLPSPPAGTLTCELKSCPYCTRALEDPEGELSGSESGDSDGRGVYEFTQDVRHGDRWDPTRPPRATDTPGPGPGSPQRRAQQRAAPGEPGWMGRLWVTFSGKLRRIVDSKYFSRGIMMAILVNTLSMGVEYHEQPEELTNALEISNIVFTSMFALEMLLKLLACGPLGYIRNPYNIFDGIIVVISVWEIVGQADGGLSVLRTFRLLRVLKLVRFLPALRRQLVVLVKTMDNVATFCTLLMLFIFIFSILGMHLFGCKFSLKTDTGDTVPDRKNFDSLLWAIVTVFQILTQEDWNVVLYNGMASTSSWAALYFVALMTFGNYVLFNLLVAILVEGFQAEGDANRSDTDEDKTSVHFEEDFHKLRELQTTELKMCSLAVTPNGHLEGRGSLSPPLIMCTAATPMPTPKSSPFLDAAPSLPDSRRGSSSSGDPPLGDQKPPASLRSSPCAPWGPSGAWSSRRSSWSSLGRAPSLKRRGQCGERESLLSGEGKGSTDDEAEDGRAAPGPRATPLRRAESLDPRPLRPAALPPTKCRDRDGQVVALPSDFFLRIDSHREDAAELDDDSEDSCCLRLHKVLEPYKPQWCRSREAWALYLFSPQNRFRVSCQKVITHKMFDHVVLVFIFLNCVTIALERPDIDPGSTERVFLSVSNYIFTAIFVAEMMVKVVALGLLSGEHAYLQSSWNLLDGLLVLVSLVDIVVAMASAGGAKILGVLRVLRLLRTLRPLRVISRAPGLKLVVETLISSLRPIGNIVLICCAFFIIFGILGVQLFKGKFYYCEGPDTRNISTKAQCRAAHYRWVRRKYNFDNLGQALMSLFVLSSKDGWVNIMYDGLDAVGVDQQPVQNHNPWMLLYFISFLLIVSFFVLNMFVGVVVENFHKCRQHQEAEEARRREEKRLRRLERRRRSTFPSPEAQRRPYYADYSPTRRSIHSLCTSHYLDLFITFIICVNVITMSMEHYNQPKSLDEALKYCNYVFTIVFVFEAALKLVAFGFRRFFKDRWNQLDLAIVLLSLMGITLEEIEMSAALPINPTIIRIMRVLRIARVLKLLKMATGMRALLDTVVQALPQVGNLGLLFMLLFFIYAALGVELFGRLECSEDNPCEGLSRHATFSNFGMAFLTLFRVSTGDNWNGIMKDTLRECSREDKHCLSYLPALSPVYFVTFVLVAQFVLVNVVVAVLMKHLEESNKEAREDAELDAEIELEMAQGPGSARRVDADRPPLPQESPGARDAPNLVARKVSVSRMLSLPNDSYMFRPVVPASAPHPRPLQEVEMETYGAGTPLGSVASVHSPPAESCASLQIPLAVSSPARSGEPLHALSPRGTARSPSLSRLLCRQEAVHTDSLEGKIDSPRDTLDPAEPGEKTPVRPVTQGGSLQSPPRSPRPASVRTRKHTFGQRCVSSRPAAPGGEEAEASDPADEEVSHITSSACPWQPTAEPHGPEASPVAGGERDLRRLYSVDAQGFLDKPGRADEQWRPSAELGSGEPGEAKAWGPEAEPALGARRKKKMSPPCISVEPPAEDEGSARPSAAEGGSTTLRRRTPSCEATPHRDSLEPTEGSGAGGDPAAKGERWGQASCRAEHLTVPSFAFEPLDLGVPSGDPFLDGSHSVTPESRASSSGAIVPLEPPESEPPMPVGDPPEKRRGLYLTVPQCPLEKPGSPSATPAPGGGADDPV

By IC50 is commonly meant the midpoint of a concentration-inhibition curve. The pIC50 is the negative decadic logarithm of the IC50, by convention in mol/L. Regarding `O=C(N[C@H]1CC[C@H](CS(=O)(=O)c2cccc(C(F)(F)F)c2)CC1)c1cc(-c2ccc(F)cc2)n[nH]1` [Compound 108, 3-(4-fluorophenyl)-N-((1R,4R)-4-((3-(trifluoromethyl)phenylsulfonyl)methyl)cyclohexyl)-1H-pyrazole-5-carboxamide], the IC50 in assay [1] is 720 nM. Also, the pIC50 in assay [2] is below 5.00; in assay [3], 5.20.

`O=C(N[C@H]1CC[C@@H](S(=O)(=O)c2cc(F)cc(C(F)(F)F)c2)CC1)c1ccc(Cl)c(OC(F)(F)F)c1` [Compound 322, 4-chloro-N-((1S,4S)-4-(3-fluoro-5-(trifluoromethyl)phenylsulfonyl)cyclohexyl)-3-(trifluoromethoxy)benzamide]: the IC50 in assay [1] came out at 500 nM. For the same compound, the results for the pIC50 in assay [2] and in assay [3] were 6.20 and 5.49, respectively.

Consider `O=C(N[C@H]1CC[C@@](F)(S(=O)(=O)c2cc(F)cc(C(F)(F)F)c2)CC1)c1cc(C(F)(F)F)ccn1` [Compound 328, N-((1S,4S)-4-fluoro-4-(3-fluoro-5-(trifluoromethyl)phenylsulfonyl)cyclohexyl)-4-(trifluoromethyl)picolinamide], for which, in assay [1], the IC50 came to 710 nM. The pIC50 is 5.61 in assay [2] and below 5.00 in assay [3].

As for `O=S(=O)(NC[C@H]1C[C@H](S(=O)(=O)c2cccc(C(F)(F)F)c2)C1)c1cccc(C(F)(F)F)c1` [Compound 427, 3-(trifluoromethyl)-N-(((1R,3R)-3-(3-(trifluoromethyl)phenylsulfonyl)cyclobutyl)methyl)benzenesulfonamide], the IC50 in assay [1] amounted to 920 nM. Besides, the negative logarithm of the IC50 (pIC50) is 6.06 in assay [2] and 5.42 in assay [3].

Consider `O=C(Nc1ccc(C(F)(F)F)cn1)[C@H]1C[C@H](S(=O)(=O)c2cccc(C(F)(F)F)c2)C1` [Compound 415, (1R,3R)-3-(3-(trifluoromethyl)phenylsulfonyl)-N-(5-(trifluoromethyl)pyridin-2-yl)cyclobutanecarboxamide], for which, in assay [1], the IC50 is 1760 nM. Also, the negative-log IC50 (pIC50) in assay [2] and in assay [3] was below 5.00 throughout.

As to `CS(=O)(=O)c1nc(C(F)(F)F)ccc1C(=O)N[C@H]1CC[C@@](F)(S(=O)(=O)c2cccc(C(F)(F)F)c2)CC1` [Compound 260], in assay [1], the IC50 amounted to 1080 nM. For the same compound, the pIC50 was 5.44 in assay [2] and 5.64 in assay [3].

In the case of `CC1(NC(=O)c2ccc(C(F)(F)F)cn2)CCC(S(=O)(=O)c2cccc(C(F)(F)F)c2)CC1` (stereo not drawn) [Compound 312, N-(1-methyl-4-(3-(trifluoromethyl)phenylsulfonyl)cyclohexyl)-5-(trifluoromethyl)picolinamide], in assay [1], the IC50 was 1020 nM. For the same compound, the results for the pIC50 in assay [2] and in assay [3] were 5.71 and 5.53, respectively.

In the case of `O=C(N[C@H]1CC[C@@H](CS(=O)(=O)c2cccc(C(F)(F)F)c2)CC1)c1ccc(Cl)c(F)c1` [Compound 141, 4-chloro-3-fluoro-N-((1S,4S)-4-((3-(trifluoromethyl)phenylsulfonyl)methyl)cyclohexyl)benzamide], the IC50 in assay [1] came out at 600 nM. Besides, the results for the pIC50 in assay [2] and in assay [3] were 5.44 and 5.37, respectively.

As to `Cn1nc(C(F)(F)F)cc1C(=O)NC1(C)CCC(S(=O)(=O)c2cccc(C(F)(F)F)c2)CC1` (stereo not drawn) [Compound 307, 1-methyl-N-(1-methyl-4-(3-(trifluoromethyl)phenylsulfonyl)cyclohexyl)-3-(tritluoromethyl)-1H-pyrazole-5-carboxamide], the IC50 in assay [1] came to 3120 nM. Also, the pIC50 in assay [2] was 5.81; in assay [3], 5.62.

On to `COc1cc(C(=O)NC2(C)CCC(S(=O)(=O)c3cccc(C(F)(F)F)c3)CC2)cc(Cl)n1` (stereo not drawn) [Compound 313, 2-chloro-6-methoxy-N-(1-methyl-4-(3-(trifluoromethyl)phenylsulfonyl)cyclohexyl) isonicotinamide], for which, in assay [1], the IC50 is 1980 nM. In addition, the pIC50 in assay [2] and in assay [3] was below 5.00 each time.

Turning to `O=C(NC[C@H]1C[C@@H](S(=O)(=O)c2cccc(C(F)(F)F)c2)C1)c1ccc(C(F)(F)F)cn1` [Compound 385, 5-(trifluoromethyl)-N-(((1S,3S)-3-(3-(trifluoromethyl)phenylsulfonyl)cyclobutyl)methyl)picolinamide], the half-maximal inhibitory concentration (IC50) in assay [1] came to 710 nM. For the same compound, the pIC50 in assay [2] and in assay [3] was below 5.00 in each case.

For `CC(C)S(=O)(=O)c1cc(C(F)(F)F)cnc1C(=O)N[C@H]1CC[C@@H](S(=O)(=O)c2cccc(C(F)(F)F)c2)CC1` [Compound 339, 3-(isopropylsulfonyl)-5-(trifluoromethyl)-N-((1S,4S)-4-(3-(trifluoromethyl)phenylsulfonyl)cyclohexyl) picolinamide], the half-maximal inhibitory concentration (IC50) in assay [1] was 220 nM. For the same compound, the pIC50 was 5.48 in assay [2] and 5.28 in assay [3].

Consider `O=C(NC[C@H]1C[C@@H](S(=O)(=O)c2cccc(C(F)(F)F)c2)C1)c1ccnc(C(F)(F)F)n1` [Compound 383, 2-(trifluoromethyl)-N-(((1S,3S)-3-(3-(trifluoromethyl)phenylsulfonyl)cyclobutyl)methyl)pyrimidine-4-carboxamide], for which the IC50 in assay [1] amounted to 1360 nM. Besides, the figures for the pIC50 in assay [2] and in assay [3] were 5.23 and below 5.00, respectively.

For the compound `O=C(NC[C@H]1C[C@@H](S(=O)(=O)c2cccc(C(F)(F)F)c2)C1)c1ccc(F)c(C(F)(F)F)c1` [Compound 377, 4-fluoro-3-(trifluoromethyl)-N-(((1S,3S)-3-(3-(trifluoromethyl)phenylsulfonyl)cyclobutyl)methyl)benzamide], the IC50 in assay [1] came out at 460 nM. For the same compound, the pIC50 is 5.98 in assay [2] and 5.63 in assay [3].

In the case of `O=C(CN[C@H]1CC[C@H](CS(=O)(=O)c2cccc(C(F)(F)F)c2)CC1)NC1CCCCC1` [Compound 118, N-cyclohexyl-2-((1R,4R)-4-((3-(trifluoromethyl)phenylsulfonyl)methyl)cyclohexylamino)acetamide], in assay [1], the IC50 came out at 790 nM. The pIC50 in assay [2] and in assay [3] was below 5.00 in each case.

As for `O=S(=O)(N[C@H]1CC[C@@](F)(S(=O)(=O)c2cccc(C(F)(F)F)c2)CC1)c1ccc(C(F)(F)F)cc1Cl` [Compound 297, 2-chloro-N-((1S,4S)-4-fluoro-4-(3-(trifluoromethyl)phenylsulfonyl)cyclohexyl)-4-(trifluoromethyl) benzenesulfonamide], the IC50 in assay [1] came to 720 nM. Besides, the pIC50 in assay [2] is 6.52; in assay [3], 6.07.

With `Cc1nc(C(F)(F)F)ccc1NC(=O)[C@H]1C[C@@H](S(=O)(=O)c2cccc(C(F)(F)F)c2)C1` [Compound 418, (1S,3S)-N-(2-methyl-6-(trifluoromethyl)pyridin-3-yl)-3-(3-(trifluoromethyl)phenylsulfonyl)cyclobutane carboxamide], the IC50 in assay [1] amounted to 3500 nM. In addition, the results for the pIC50 in assay [2] and in assay [3] were 5.54 and below 5.00, respectively.

With `O=C(Nc1ccc(Oc2ccc(C(F)(F)F)cn2)nc1)[C@H]1C[C@H](S(=O)(=O)c2cccc(C(F)(F)F)c2)C1` [Compound 400, (1R,3R)-3-(3-(trifluoromethyl)phenylsulfonyl)-N-(6-(5-(trifluoromethyl)pyridin-2-yloxy)pyridin-3-yl) cyclobutanecarboxamide], the IC50 in assay [1] was 3830 nM. For the same compound, the pIC50 is 5.23 in assay [2] and below 5.00 in assay [3].

Take `Cn1cc(C(=O)N[C@H]2CC[C@H](CS(=O)(=O)c3cccc(C(F)(F)F)c3)CC2)c(C(F)(F)F)n1` [Compound 106, 1-methyl-3-(trifluoromethyl)-N-((1R,4R)-4-((3-(trifluoromethyl)phenylsulfonyl)methyl)cyclohexyl)-1H-pyrazole-4-carboxamide]: the IC50 in assay [1] was found to be 1940 nM. Besides, the pIC50 was below 5.00 in assay [2] and 5.66 in assay [3].

For `CC(C)S(=O)(=O)c1cc(C(F)(F)F)cnc1C(=O)N[C@H]1CC[C@@H](CS(=O)(=O)c2cccc(C(F)(F)F)c2)CC1` [Compound 342, 3-(isopropylsulfonyl)-5-(trifluoromethyl)-N-((1S,4S)-4-((3-(trifluoromethyl)phenylsulfonyl)methyl)cyclohexyl)picolinamide], the IC50 in assay [1] is 720 nM. Further, the pIC50 in assay [2] was 6.12; in assay [3], 5.77.

For `Cc1cc(C(=O)N[C@H]2CC[C@@H](S(=O)(=O)c3cccc(C(F)(F)F)c3)CC2)c(C(F)(F)F)o1` [Compound 198, 5-methyl-2-(trifluoromethyl)-N-((1S,4S)-4-(3-(trifluoromethyl)phenylsulfonyl)cyclohexyl)furan-3-carboxamide], the IC50 in assay [1] came out at 270 nM. Also, the pIC50 in assay [2] and in assay [3] was below 5.00 in each case.

With `COc1cc(Cl)ccc1C(=O)N[C@H]1CC[C@@](F)(S(=O)(=O)c2cccc(C(F)(F)F)c2)CC1` [Compound 265, 4-chloro-N-((1S,4S)-4-fluoro-4-(3-(trifluoromethyl)phenylsulfonyl)cyclohexyl)-2-methoxybenzamide], the IC50 in assay [1] was found to be 260 nM. The pIC50 in assay [2] and in assay [3] was below 5.00 throughout.

On to `CC(C)(C(=O)N[C@H]1CC[C@@](F)(S(=O)(=O)c2cccc(C(F)(F)F)c2)CC1)S(=O)(=O)c1cccc(C(F)(F)F)c1` [Compound 291, N-((1S,4S)-4-fluoro-4-(3-(trifluoromethyl)phenylsulfonyl)cyclohexyl)-2-methyl-2-(3-(trifluoromethyl)phenylsulfonyl)propanamide], for which the IC50 in assay [1] came out at 50 nM. Further, the figures for the pIC50 in assay [2] and in assay [3] were 5.22 and below 5.00, respectively.
